From US20220233661A1, “METHOD OF DETERMINING ELIGIBILITY OF CANCER PATIENT FOR PEPTIDE VACCINE THERAPY” (priority 2019, published 2022)

Assays:
[1] = test system: anti-peptide IgG in plasma; assay: Test Example 4: peptide-specific IgG titer pre and post vaccination, bead-based multiplexed Luminex assay; format: in vivo, human; conditions: for Pre-vaccination IgG Negative (number of patients) / Pre-vaccination IgG Positive (number of patients): cut off 10 FIU; for Post vaccination IgG: number of (positive) patients among vaccinated: positive IgG response; for Pre-vaccination IgG Negative patients: number of 2,588 patients below 10 FIU; for Pre-vaccination IgG Positive patients: number of 2,588 patients with ≥10 FIU; for Post vaccination IgG: (positive) patients: number of vaccinated patients with positive IgG response; for Correlation between immune responses and OS: Negative (mOS): patients with negative post-vaccination IgG response to the peptide; for Correlation between immune responses and OS: Positive (mOS): patients with positive post-vaccination IgG response to the peptide
How it was run: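 Plasma taken before vaccination and at the end of the first and second cycles; incubated with peptide-coupled beads 2 hours at 25° C., then biotinylated anti-human IgG (gamma chain-specific) and streptavidin-PE. Bead FIU read by Luminex; positivity cutoff 10 FIU in 100-fold diluted samples.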

cancer patients = assay: Test Example 4: correlation between vaccination with individual peptides (or peptide sets) and OS, Cox proportional hazards regression; format: in vivo, human; conditions: for HR: Cox proportional hazards regression, OS; for Correlation between immune responses and OS: Negative (mOS) / Correlation between immune responses and OS: Positive (mOS): Table 20, <64% neutrophil and ≥26% lymphocyte; for Correlation between immune responses and OS: Negative (mOS): vaccinated patients with negative IgG response; for Correlation between immune responses and OS: Positive (mOS): vaccinated patients with positive IgG response
How it was run: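 Univariate and multivariate Cox proportional hazards regression of each of 31 vaccine peptides against OS (enrollment to death or last contact), giving HR with 95% CI; also run separately in 2,085 advanced (stage IV+recurrence) and 503 stage I-III patients. Two-sided p<0.05 considered significant.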

[2] = Table 20, patients showing both <64% neutrophil and ≥26% lymphocyte
[3] = patients showing detectable levels
[4] = patients showing positive responses
[5] = Table 18, all 2,588 cases, vaccinated vs non-vaccinated
[6] = Table 18, all 2,588 cases, median OS of patients under PPV containing the peptide
[7] = Table 18, all 2,588 cases, median OS of patients under PPV not containing the peptide
[8] = Table 19, 2,085 advanced cancer patients (stage IV+recurrence)
[9] = Table 19, 2,085 advanced cancer patients (stage IV+recurrence), PPV containing the peptide
[10] = Table 19, 2,085 advanced cancer patients (stage IV+recurrence), PPV not containing the peptide
[11] = Table 21, patients showing both <64% neutrophil and ≥26% lymphocyte
[12] = Table 21, patients showing both <64% neutrophil and ≥26% lymphocyte, PPV containing the peptide
[13] = Table 21, patients showing both <64% neutrophil and ≥26% lymphocyte, PPV not containing the peptide
[14] = 2,085 advanced cancer patients (stage IV+recurrence)

Row | Sequence | Post vaccination IgG Median (FIU) [1, 2] | Pre-vaccination IgG Median (FIU) [1, 2] [FIU] | Pre-vaccination IgG Negative (number of patients) [1, 2] | Pre-vaccination IgG Positive (number of patients) [1, 2] | Post vaccination IgG: number of (positive) patients among vaccinated [1, 2] | Pre-vaccination IgG Negative patients [1] | Pre-vaccination IgG Positive patients [1] | Post vaccination IgG: (positive) patients [1] | Pre-vaccination IgG Median (FIU) [1, 3] [FIU] | Post vaccination IgG Median (FIU) [1, 4] | Correlation between immune responses and OS: Negative (mOS) [1] [months] | Correlation between immune responses and OS: Positive (mOS) [1] [months] | HR (cancer patients; [5]) | Vaccinate cases (mOS) (cancer patients; [6]) | Non-vaccinate cases (mOS) (cancer patients; [7]) | HR (cancer patients; [8]) | Vaccinate cases (mOS) (cancer patients; [9]) | Non-vaccinate cases (mOS) (cancer patients; [10]) | Correlation between immune responses and OS: Negative (mOS) (cancer patients) [months] | Correlation between immune responses and OS: Positive (mOS) (cancer patients) [months] | also measured
1 | KYVGIEREM (listed as Homo sapiens) [EZH2-735] | 20,673 FIU | 23 | 837 | 229 | 31(25) | 2,030 | 558 | 69(51) | 23 | 17,691 FIU | 5.3 | 24.7 | 0.9 | 69(13.3) M | 1,481(11.9) M | 0.9 | 53(11.9) M | 1193(10.4) M | 6.7 | 26.7 | positive immune responses post-vaccination (positive of vaccinated cases) ([1]; patients who completed at least the first cycle): 51 of 69; HR (cancer patients; [11]): 0.7; Vaccinate cases (mOS) (cancer patients; [12]): 31(26.5) M; Non-vaccinate cases (mOS) (cancer patients; [13]): 594(18.0) M
2 | LLQAEAPRL (listed as Homo sapiens) [SART3-302] | 17,719 FIU | 84 | 375 | 691 | 173(138) | 948 | 1,640 | 408(271) | 84 | 14,958 FIU | 9.1 | 18.2 | 0.9 | 408(12.7) M | 642(10.5) M | 0.9 | 328(11.4) M | 534(9.8) M | 10.8 | 21.2 | HR (cancer patients; [11]): 0.9; Vaccinate cases (mOS) (cancer patients; [12]): 173(18.1) M; Non-vaccinate cases (mOS) (cancer patients; [13]): 261(16.3) M
3 | LYAWEPSFL (listed as Homo sapiens) [MRP3-503] | 13,871 FIU | 40 | 885 | 181 | 61(46) | 2,121 | 467 | 133(85) | 37 | 6,401 FIU | 9.3 | 20.6 | 0.9 | 133(14.1) M | 1,417(11.9) M | 0.9 | 108(13.4) M | 1138(10.4) M | 12.6 | 25.1 | HR (cancer patients; [11]): 1.0; Vaccinate cases (mOS) (cancer patients; [12]): 61(24.3) M; Non-vaccinate cases (mOS) (cancer patients; [13]): 564(18.1) M
4 | LYCESVHNF (listed as Homo sapiens) [PAP-213] | 15,379 FIU | 33 | 489 | 577 | 121(94) | 1,166 | 1,422 | 279(196) | 33 | 14,912 FIU | 7.0 | 21.7 | 0.9 | 279(16.6) M | 1271(11.4) M | 0.8 | 228(14.9) M | 1018(10.0) M | 11.3 | 28.1 | median OS of non-vaccinated cases (cancer patients; [14]): 10 months; median OS of vaccinated cases (cancer patients; [14]): 14.9 months; HR (cancer patients; [11]): 0.9; Vaccinate cases (mOS) (cancer patients; [12]): 121(23.7) M; Non-vaccinate cases (mOS) (cancer patients; [13]): 504(17.9) M
5 | NVLHFFNAPL (listed as Homo sapiens) [HNRPL-501] | 12,553 FIU | 48 | 587 | 479 | 148(111) | 1,399 | 1,189 | 355(223) | 45 | 10,405 FIU | 6.6 | 19.3 | 1.0 | 355(12.1) M | 1,107(11.6) M | 1.0 | 291(10.4) M | 897(10.3) M | 10.6 | 28.2 | HR (cancer patients; [11]): 0.9; Vaccinate cases (mOS) (cancer patients; [12]): 148(19.6) M; Non-vaccinate cases (mOS) (cancer patients; [13]): 445(17.5) M
